The data set is described as follows: Relaxometric properties: longitudinal relaxivity r1p in human plasma. Type of data set: physicochemical. To be noted: 37° C. As to the method:
The relaxometric properties of some representative complex compounds according to the invention have been determined at different magnetic field strengths, e.g. including 0.47 and 1.41 T, at 37° C. and in different media (physiologic solution and human plasma) and compared with relaxivity values measured, at the same conditions, for some Gd-Complex of the market having an analogous cyclic coordination cage.
The longitudinal water proton relaxation rate (R1=1/T1) was measured at 0.47 T with a Minispec MQ-20 spectrometer (Bruker Biospin, Germany) operating at a proton Larmor frequency of 20 MHz; MR experiments at 1.41 T were performed using a Minispec MQ-60 spectrometer (Bruker Biospin, Germany) operating at a proton Larmor frequency of 60 MHz.
All test articles were used as supplied and diluted in the selected medium (physiologic solution or human plasma) by weighting the required amount of paramagnetic chelated complex to get a 5 or 10 mM starting solution.
Five different concentration samples (0.1, 0.25, 0.5, 0.75 and 1 mM) for each medium have been prepared by further dilution of the starting 5 or 10 mM solution.
Relaxivity measurements were performed at 0.47 T and 1.41 T at a preset temperature sample of 37° C., kept constant by means of a thermostatic bath connected to the sample holder of the spectrometer. The five sample solutions have been preliminary pre-heated at 37° C. in an external thermostatic bath and then left 10 minutes inside the internal bath to assure the stabilization of the temperature. Longitudinal relaxation time T1 was measured by means of a standard inversion recovery sequence, where the inversion time (TI) was varied from 10 ms to at least 5 times T1 in 15 steps. Statistical analysis (mono-exponential fitting for T1 measurement, linear fitting for the evaluation of longitudinal relaxivity) was performed by Mathematica® (Wolfram, USA). Errors on the estimated parameters were evaluated by the fitting procedure.

`O=C(O)CN1CCN(CC(=O)O)CCN(CC(=O)O)CCN(CC(=O)O)CC1`: the “r1p in human plasma” value by setting is: (0.47 T) 4.5 mM⁻¹ s⁻¹; (1.41 T) 3.6 mM⁻¹ s⁻¹.
As for `O=C(O)CN1CCN(CC(O)COCC(COCC(O)CN2CCN(CC(=O)O)CCN(CP(=O)(O)O)CCN(CC(=O)O)CC2)OCc2ccccc2)CCN(CC(=O)O)CCN(CP(=O)(O)O)CC1` (stereo not drawn), the “r1p in human plasma” value turned out to be 7.41 mM⁻¹ s⁻¹ (0.47 T) and 6.8 mM⁻¹ s⁻¹ (1.41 T).
On to `CC(O)CN1CCN(CC(=O)O)CCN(CC(=O)O)CCN(CC(=O)O)CC1` (stereo not drawn) (Gd complex, metal not drawn), for which the “r1p in human plasma” value reads like this: (0.47 T) 4.9 mM⁻¹ s⁻¹; (1.41 T) 4.15 mM⁻¹ s⁻¹.

The values above are taken from patent US20190167819A1, “CONTRAST AGENTS” (BRACCO IMAGING S.P.A., priority 2016, published 2019).
